Laboratory results reported in ChEMBL document CHEMBL1201862, “PubChem BioAssay data set” (2004).
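In this assay, cells in 96-well plates receive the compound at five concentrations for 48 hours. Endpoints are linearly interpolated between the surrounding concentrations. GI50: concentration for 50% inhibition of growth.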 Calls of active or inactive are those of the source. No stated cut-off is given here; in the data, active = GI50 up to about 1.1 µM and inactive = higher.

Key:
Test in all cases: inhibition of tumour cell growth, NCI panel, 48 h
[1] = system: SF-539
[2] = system: UACC-257
[3] = system: SK-OV-3
[4] = system: EKVX
[5] = system: MDA-MB-231
[6] = system: MCF7
[7] = system: HL-60
[8] = system: A549
[9] = system: SNB-75
[10] = system: SF-295
[11] = system: T47D
[12] = system: SF-268
[13] = system: UO-31
[14] = system: SNB-19
[15] = system: NCI-H226
[16] = system: K562
[17] = system: OVCAR-3
[18] = system: LOX IMVI
[19] = system: OVCAR-4
[20] = system: A498

Q: `CC(C)=NNc1cnnc2ccc([N+](=O)[O-])cc12` was tested. Which GI50 [1] did it give?
A: The GI50 was > 100 µM (inactive).

Q: And the GI50 [2]?
A: The GI50 was > 100 µM (inactive).

Q: And the GI50 [3]?
A: The GI50 was > 100 µM (inactive).

Q: What about the GI50 [4] of the same compound?
A: Its GI50 is > 100 µM (inactive).

Q: And the GI50 [5]?
A: The GI50 was 59.7 µM (inactive).

Q: What about the GI50 [6] of the same compound?
A: The GI50 was 57.8 µM (inactive).

Q: And the GI50 [7]?
A: The GI50 was 16.3 µM (inactive).

Q: And the GI50 [8]?
A: Its GI50 is > 100 µM (inactive).

Q: And the GI50 [9]?
A: The GI50 was 58.9 µM (inactive).

Q: What about the GI50 [10] of the same compound?
A: Its GI50 is > 100 µM (inactive).

Q: And the GI50 [11]?
A: The GI50 was 65.2 µM (inactive).

Q: What about the GI50 [12] of the same compound?
A: The GI50 was > 100 µM (inactive).

Q: What about the GI50 [13] of the same compound?
A: Its GI50 is 35.2 µM (inactive).

Q: What about the GI50 [14] of the same compound?
A: The GI50 was > 100 µM (inactive).

Q: And the GI50 [15]?
A: Its GI50 is > 100 µM (inactive).

Q: Which GI50 [2] does the source give for `COc1cccc(C2CC(C)(O)Oc3cc4c(cc32)OCO4)c1` (centres undefined) here?
A: The GI50 was 37.6 µM (inactive).

Q: And the GI50 [3]?
A: The GI50 was 16.9 µM (inactive).

Q: And the GI50 [4]?
A: The GI50 was 36.1 µM (inactive).

Q: What about the GI50 [16] of the same compound?
A: The GI50 was 19.5 µM (inactive).

Q: And the GI50 [5]?
A: Its GI50 is 24.1 µM (inactive).

Q: And the GI50 [6]?
A: The GI50 was 17.9 µM (inactive).

Q: What about the GI50 [7] of the same compound?
A: The GI50 was 17.2 µM (inactive).

Q: What about the GI50 [8] of the same compound?
A: The GI50 was 31 µM (inactive).

Q: What about the GI50 [17] of the same compound?
A: The GI50 was 19.4 µM (inactive).

Q: And the GI50 [18]?
A: Its GI50 is 22.3 µM (inactive).

Q: What about the GI50 [9] of the same compound?
A: The GI50 was 18.6 µM (inactive).

Q: And the GI50 [10]?
A: Its GI50 is 17.8 µM (inactive).

Q: What about the GI50 [19] of the same compound?
A: Its GI50 is 24.2 µM (inactive).

Q: And the GI50 [11]?
A: The GI50 was 27.8 µM (inactive).

Q: What about the GI50 [12] of the same compound?
A: The GI50 was 30.6 µM (inactive).

Q: What about the GI50 [13] of the same compound?
A: Its GI50 is 23.3 µM (inactive).

Q: What about the GI50 [14] of the same compound?
A: The GI50 was 32.6 µM (inactive).

Q: And the GI50 [15]?
A: The GI50 was 17.3 µM (inactive).

Q: `O=[N+]([O-])c1ccc(/C=C(/c2ccc([N+](=O)[O-])o2)S(=O)(=O)c2ccccc2)o1` was tested. Which GI50 [1] did it give?
A: The GI50 was 18.1 µM (inactive).

Q: And the GI50 [2]?
A: The GI50 was 1.84 µM (inactive).

Q: And the GI50 [3]?
A: The GI50 was 29.4 µM (inactive).

Q: What about the GI50 [4] of the same compound?
A: The GI50 was 0.0885 µM (active).

Q: And the GI50 [16]?
A: The GI50 was 2.96 µM (inactive).

Q: And the GI50 [5]?
A: Its GI50 is 3.19 µM (inactive).

Q: What about the GI50 [6] of the same compound?
A: Its GI50 is 11.8 µM (inactive).

Q: What about the GI50 [7] of the same compound?
A: The GI50 was 2.75 µM (inactive).

Q: What about the GI50 [8] of the same compound?
A: Its GI50 is 18.7 µM (inactive).

Q: And the GI50 [17]?
A: Its GI50 is 6.14 µM (inactive).

Q: And the GI50 [9]?
A: Its GI50 is 19 µM (inactive).

Q: And the GI50 [10]?
A: Its GI50 is 18.6 µM (inactive).

Q: What about the GI50 [19] of the same compound?
A: The GI50 was 4.22 µM (inactive).

Q: What about the GI50 [11] of the same compound?
A: The GI50 was 11.4 µM (inactive).

Q: And the GI50 [12]?
A: The GI50 was 15.6 µM (inactive).

Q: What about the GI50 [13] of the same compound?
A: The GI50 was 4.34 µM (inactive).

Q: What about the GI50 [14] of the same compound?
A: The GI50 was 20.1 µM (inactive).

Q: And the GI50 [15]?
A: The GI50 was 1.42 µM (inactive).

Q: With `N#CC(C#N)=C/C=C(\Sc1c(Cl)c(Cl)nc(Cl)c1Cl)c1ccc(Cl)cc1` as the compound, how does the GI50 [1] read?
A: The GI50 was 19.4 µM (inactive).

Q: And the GI50 [2]?
A: The GI50 was 14.8 µM (inactive).

Q: What about the GI50 [3] of the same compound?
A: The GI50 was 24.4 µM (inactive).

Q: And the GI50 [4]?
A: Its GI50 is 32.4 µM (inactive).

Q: What about the GI50 [16] of the same compound?
A: Its GI50 is 5.93 µM (inactive).

Q: What about the GI50 [5] of the same compound?
A: Its GI50 is 21.6 µM (inactive).

Q: What about the GI50 [6] of the same compound?
A: Its GI50 is 31.1 µM (inactive).

Q: And the GI50 [7]?
A: Its GI50 is 10.8 µM (inactive).

Q: And the GI50 [8]?
A: The GI50 was > 100 µM (inactive).

Q: What about the GI50 [17] of the same compound?
A: The GI50 was 11.6 µM (inactive).

Q: What about the GI50 [18] of the same compound?
A: Its GI50 is 5.56 µM (inactive).

Q: And the GI50 [9]?
A: The GI50 was 20.1 µM (inactive).

Q: What about the GI50 [10] of the same compound?
A: The GI50 was 19 µM (inactive).

Q: And the GI50 [19]?
A: Its GI50 is 29.9 µM (inactive).

Q: What about the GI50 [11] of the same compound?
A: The GI50 was 31.6 µM (inactive).

Q: What about the GI50 [12] of the same compound?
A: Its GI50 is 19.6 µM (inactive).

Q: And the GI50 [13]?
A: Its GI50 is 29.8 µM (inactive).

Q: And the GI50 [14]?
A: The GI50 was 20.7 µM (inactive).

Q: And the GI50 [15]?
A: Its GI50 is 23 µM (inactive).

Q: For `CCc1n[nH]c(=O)n1/N=C(\C)c1ccc([N+](=O)[O-])cc1`, which GI50 [2] is on record?
A: Its GI50 is > 100 µM (inactive).

Q: And the GI50 [4]?
A: Its GI50 is > 100 µM (inactive).

Q: What about the GI50 [16] of the same compound?
A: Its GI50 is 97.7 µM (inactive).

Q: What about the GI50 [5] of the same compound?
A: The GI50 was 19.7 µM (inactive).

Q: What about the GI50 [6] of the same compound?
A: The GI50 was 30.2 µM (inactive).

Q: And the GI50 [7]?
A: Its GI50 is > 100 µM (inactive).

Q: And the GI50 [8]?
A: Its GI50 is 86.7 µM (inactive).

Q: And the GI50 [17]?
A: Its GI50 is > 100 µM (inactive).

Q: And the GI50 [18]?
A: Its GI50 is 49.4 µM (inactive).

Q: What about the GI50 [10] of the same compound?
A: Its GI50 is > 100 µM (inactive).

Q: What about the GI50 [19] of the same compound?
A: Its GI50 is > 100 µM (inactive).

Q: And the GI50 [11]?
A: The GI50 was > 100 µM (inactive).

Q: What about the GI50 [12] of the same compound?
A: The GI50 was 26.3 µM (inactive).

Q: And the GI50 [13]?
A: Its GI50 is > 100 µM (inactive).

Q: What about the GI50 [14] of the same compound?
A: Its GI50 is > 100 µM (inactive).

Q: And the GI50 [15]?
A: The GI50 was > 100 µM (inactive).

Q: Which results are given for `COc1ccc(C2NC3=C(CCCC3)C3(C#N)C(=O)N=C(N)C23C#N)cc1` (centres undefined)?
A: GI50 [2]: > 100 µM (inactive); GI50 [3]: > 100 µM (inactive); GI50 [4]: > 100 µM (inactive); GI50 [16]: > 100 µM (inactive); GI50 [5]: > 100 µM (inactive); GI50 [6]: > 100 µM (inactive); GI50 [7]: > 100 µM (inactive); GI50 [8]: > 100 µM (inactive); GI50 [18]: > 100 µM (inactive); GI50 [20]: > 100 µM (inactive); GI50 [10]: > 100 µM (inactive); GI50 [19]: > 100 µM (inactive); GI50 [11]: > 100 µM (inactive); GI50 [12]: > 100 µM (inactive); GI50 [13]: > 100 µM (inactive); GI50 [14]: > 100 µM (inactive); GI50 [15]: > 100 µM (inactive)

Q: With `Cc1cc(C)n2nc3nc(N)c(C#N)c(-c4ccccc4)c3c2n1` as the compound, how does the GI50 [1] read?
A: The GI50 was > 100 µM (inactive).

Q: And the GI50 [2]?
A: The GI50 was > 100 µM (inactive).

Q: What about the GI50 [3] of the same compound?
A: Its GI50 is > 100 µM (inactive).

Q: And the GI50 [4]?
A: The GI50 was > 100 µM (inactive).

Q: What about the GI50 [16] of the same compound?
A: The GI50 was > 100 µM (inactive).

Q: And the GI50 [5]?
A: The GI50 was > 100 µM (inactive).

Q: And the GI50 [6]?
A: Its GI50 is > 100 µM (inactive).

Q: And the GI50 [7]?
A: Its GI50 is > 100 µM (inactive).

Q: What about the GI50 [8] of the same compound?
A: Its GI50 is > 100 µM (inactive).

Q: And the GI50 [17]?
A: The GI50 was > 73.6 µM (inactive).

Q: And the GI50 [18]?
A: Its GI50 is > 100 µM (inactive).

Q: What about the GI50 [20] of the same compound?
A: The GI50 was > 100 µM (inactive).

Q: What about the GI50 [10] of the same compound?
A: Its GI50 is > 100 µM (inactive).

Q: And the GI50 [19]?
A: Its GI50 is > 100 µM (inactive).

Q: And the GI50 [12]?
A: The GI50 was > 100 µM (inactive).

Q: What about the GI50 [13] of the same compound?
A: The GI50 was > 100 µM (inactive).

Q: And the GI50 [14]?
A: The GI50 was > 100 µM (inactive).

Q: What about the GI50 [15] of the same compound?
A: The GI50 was > 78.5 µM (inactive).

Q: What does the source list for `CC(=O)O[C@H]1CC[C@@]2(C)C(=CC[C@@H]3[C@@H]2CC[C@]2(C)C(=N/O)/C(=C/c4ccc([N+](=O)[O-])cc4)C[C@@H]32)C1`?
A: GI50 [1]: 29.3 µM (inactive); GI50 [2]: 0.0304 µM (active); GI50 [3]: 11.9 µM (inactive); GI50 [16]: 3.1 µM (inactive); GI50 [5]: 8.89 µM (inactive); GI50 [7]: 2.33 µM (inactive); GI50 [8]: 4.55 µM (inactive); GI50 [17]: 2.47 µM (inactive); GI50 [18]: 6.52 µM (inactive); GI50 [20]: 4.71 µM (inactive); GI50 [9]: 10 µM (inactive); GI50 [10]: 3.74 µM (inactive); GI50 [19]: 17 µM (inactive); GI50 [11]: 0.338 µM (active); GI50 [12]: 3.66 µM (inactive); GI50 [13]: 4.44 µM (inactive); GI50 [14]: 2.94 µM (inactive); GI50 [15]: 7.66 µM (inactive)
